Measurements: patent publication US20240238363A1 (priority 2020, published 2024)

Assays:
[1] = test system: cofilin rods in cultured mouse hippocampal neurons; format: cell-based
Method: (§1) Aβd/t was isolated from medium of cultured 7PA2 cells, a CHO cell line expressing a form of human APP found in Familial AD. The amount of ABd/t is quantified by Western blot with standards of synthetic Aβ monomer. Neuronal cultures, fixation, permeabilization, blocking and immunostaining is performed starting with E16.5 mouse hippocampal neurons by common methods in broad use.
(§2) Images of fixed neurons immunostained for cofilin, growth cones and nuclei captured across the entire coverslip are exported to ImageJ. Macro functions are applied to set local threshold and shape/size segmentation for both the cofilin and growth cone antibodies. Cofilin stained material that is not within neurites is eliminated. Results are reported as rods/nucleus, number of rods per area, rods as percent of total area, or, if NeuN stained or identified morphologically, rods per neuron.
(§3) Amyloid beta (Aβ) trimer was added to pure cultures of mouse hippocampal neurons, devoid of immune cells, microglia, and their secreted inflammatory mediators to evaluate actin dynamics and cofilin-rod formation. […] The relevance is that rod pathology leads to synapse loss in people that correlates with dementia.

[2] = test system: growth cones in pure cultures of mouse hippocampal neurons; conditions: FIG. 5; Aβ trimer-treated neurons, 2G13 antibody stain
Method: as §1, §2, §3

CXCR4 [3] = conditions: in vivo; cited from earlier work
CXCR4 [4] = biological target: CXCR4 (Mus musculus, UniProt P70658); conditions: FIG. 2A; CXCR4 tropic gp120; cultured mouse hippocampal neurons
Sequence of CXCR4 (Mus musculus, UniProt P70658) (P70658 whole entry): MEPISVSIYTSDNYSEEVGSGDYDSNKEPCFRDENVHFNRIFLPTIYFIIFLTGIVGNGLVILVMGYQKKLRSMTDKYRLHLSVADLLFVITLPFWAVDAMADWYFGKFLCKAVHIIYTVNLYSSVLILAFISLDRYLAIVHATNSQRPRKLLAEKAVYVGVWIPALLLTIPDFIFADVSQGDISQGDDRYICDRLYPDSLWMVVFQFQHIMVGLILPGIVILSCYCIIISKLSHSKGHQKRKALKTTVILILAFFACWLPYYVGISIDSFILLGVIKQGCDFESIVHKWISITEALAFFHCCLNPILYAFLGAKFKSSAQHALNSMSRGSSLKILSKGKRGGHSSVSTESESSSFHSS
Method: as §1, §2

[5] = test system: cognitive deficits in HAND; conditions: phase 2 human trials and brain scans; cited from earlier work
[6] = test system: dendritic spine morphology, dendritic arborization and functional deficits; conditions: animal model of HIV cognitive decline; cited from earlier work
CCR5 [7] = biological target: T1, CCR5 (Mus musculus, UniProt P51682); conditions: pharmacologic blockade of CCR5; cited from earlier work
T1 sequence (P51682 whole entry): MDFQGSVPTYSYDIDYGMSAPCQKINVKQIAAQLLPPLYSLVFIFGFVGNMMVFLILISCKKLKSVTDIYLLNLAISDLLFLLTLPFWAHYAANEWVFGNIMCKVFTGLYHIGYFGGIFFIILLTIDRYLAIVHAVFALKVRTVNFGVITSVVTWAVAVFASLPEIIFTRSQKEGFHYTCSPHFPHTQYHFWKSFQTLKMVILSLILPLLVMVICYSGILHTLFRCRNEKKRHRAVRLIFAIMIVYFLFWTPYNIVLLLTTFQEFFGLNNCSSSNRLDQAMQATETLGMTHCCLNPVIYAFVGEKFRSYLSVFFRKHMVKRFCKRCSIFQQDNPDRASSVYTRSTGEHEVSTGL

CCR5 [8] = biological target: T1, CCR5; conditions: FIG. 2A; CCR5 tropic gp120; cultured mouse hippocampal neurons
Method: as §1, §2

all-D-TTNYT [RAP-103]
area within the neurons occupied by cofilin-rods, caused by amyloid beta (Aβ) [1]: reducing | area within the neurons occupied by cofilin-rods, caused by pre-formed fibrils (PPF) of alpha-synuclein [1]: reducing | block Aβ-induced formation of cofilin rods (percent of neurons expressing cofilin-rods) [1]: block | block TNF-induced formation of cofilin rods [1]: block | cofilin rod-like structures at the ends of dendrites [1]: eliminated | growth cone formation [2]: promote growth cone formation

c1cc(CN2CCCNCCNCCCNCC2)ccc1CN1CCCNCCNCCCNCC1 [AMD3100]
recovery after traumatic brain injury (CXCR4 [3]): improved recovery | inhibition of gp120-induced cofilin-rod formation through CXCR4 (CXCR4 [4]): inhibited

Dala1-peptide T-amide [DAPTA]
cognitive deficits in HAND [5]: able to reverse cognitive deficits | dendritic spine morphology, dendritic arborization and functional deficits [6]: protection of dendritic spine morphology, expansion of dendritic arborization and reversal of functional deficits

all-D-ASTTTNYT [RAP-310]
block Aβ-induced formation of cofilin rods (percent of neurons expressing cofilin-rods) [1]: block | block TNF-induced formation of cofilin rods [1]: block

maraviroc
dendritic spines and neurite cortical projections after stroke and traumatic brain injury (CCR5 [7]): preservation of dendritic spines and new patterns of neurite cortical projections | inhibition of gp120-induced cofilin-rod formation through CCR5 (CCR5 [8]): inhibited | early pathology of synapse loss (cofilin-rod formation) induced by beta-amyloid (Aβ-trimer/dimer) ([1]; FIG. 2B, blocking neuronal CCR5): can be reversed
